Article PMC9269301, “Phytochemical Analysis, Antioxidant, Antimicrobial, and Cytotoxic Activity of Different Extracts of Xanthoparmelia stenophylla Lichen from Stara Planina, Serbia” (Plants, 2022)
Marks after values point to notes of the source that are not given here.

Columns and labels:
P. aeruginosa biofilm = test: Biofilm metabolic activity by resazurin; format: cell-based, Pseudomonas aeruginosa; settings: Figure 3
Experimental: Resazurin (7-hydroxy-3H-phenoxazin-3-one-10-oxide) is a viability dye used to assess the metabolic activity of biofilms. After incubation at 37 °C/48 h, a volume of 10 µL of resazurin indicator solution was added to each well. Plates were incubated in the dark for 3 h at 37 °C. The OD was measured at 590 nm using an enzyme-linked immunosorbent assay (ELISA) plate reader. In addition, the color change from purple to pink indicated the metabolic activity of the formed biofilm.

[1] = Superoxide anion radical scavenging activity (NBT/NADH/PMS); format: biochemical; settings: mean ± SD, triplicate
Experimental: All chemicals for the antioxidant activity test were purchased from Sigma Aldrich. All measurements were conducted in triplicate, and a Shimadzu UV-1800 spectrophotometer was used for all measurements during antioxidant activity experiments. The IC50 value was used for comparing different radical scavenging effects between investigated extracts, isolated compounds, and positive controls. […] [75] with modifications. […] To initiate the reaction, 0.1 mL of phenazine methosulfate (PMS) solution ([…] in 0.1 M phosphate buffer at pH 7.4) was added to each tube. The mixture was incubated at room temperature for 5 min, and then the absorbance was measured at 560 nm relative to the blank. Ascorbic acid, gallic acid, and Trolox were used as positive controls, and a decrease in absorbance indicated increased superoxide anion radical scavenging activity. […] Ac stands for absorbance of the control (which contains all reagents, except the tested extract or compound), and As is the absorbance of the sample.

[2] = system: MRC-5 cells (nontransformed human lung fibroblast); test: MTT assay; format: cell-based
[3] = DPPH radical scavenging activity; format: biochemical; settings: mean ± SD, triplicate
Experimental: All chemicals for the antioxidant activity test were purchased from Sigma Aldrich. All measurements were conducted in triplicate, and a Shimadzu UV-1800 spectrophotometer was used for all measurements during antioxidant activity experiments. The IC50 value was used for comparing different radical scavenging effects between investigated extracts, isolated compounds, and positive controls. […] [71] with certain modifications. […] The solution was prepared ex tempore and stored in a tinted bottle in the refrigerator until the experiments were performed. […] The reaction mixture was vortexed and allowed to incubate in the dark for one hour, after which the absorbance was measured at 517 nm relative to the blank. […] Ac stands for absorbance of the control (which contains all reagents, except the tested extract or compound), and As is the absorbance of the sample.

[4] = system: MDA-MB 231 cells (breast cancer); test: MTT assay; format: cell-based, human; settings: data not shown

Q: Which results are given for usnic acid?
A: Metabolic activity of biofilm compared to the growth control (P. aeruginosa biofilm): higher; Superoxide Anion Radical Scavenging Activity (IC50) [1]: 90.32 ± 0.95 ^a,b,c,d µg/mL; GI50 (50% growth inhibition) ([2]; MRC-5, 24 h): 42.97 ± 1.56 µg/mL; IC50 ([2]; MRC-5, 24 h): 66.18 ± 1.72 µg/mL; TGI (total growth inhibition) ([2]; MRC-5, 24 h): >100 µg/mL; GI50 (50% growth inhibition) ([2]; MRC-5, 48 h): 41.31 ± 0.56 µg/mL; IC50 ([2]; MRC-5, 48 h): 78.54 ± 0.87 µg/mL; TGI (total growth inhibition) ([2]; MRC-5, 48 h): 93.25 ± 0.08 µg/mL; GI50 (50% growth inhibition) ([2]; MRC-5, 72 h): 36.73 ± 0.92 µg/mL; IC50 ([2]; MRC-5, 72 h): 53.14 ± 1.04 µg/mL; TGI (total growth inhibition) ([2]; MRC-5, 72 h): 89.15 ± 0.25 µg/mL; DPPH Radical Scavenging Activity (IC50) [3]: 64.92 ± 1.06 ^a,b,c,d µg/mL; Overall inhibitory effect (MTT), in words [4]: of minor importance
